Test system: relapsed and refractory CLL patients
Test: Phase I dose escalation: toxicity and tolerability
Format: in vivo, human
[1] = treatment related, all cohorts, N=52

## CCc1cnn2c(NCc3ccc[n+]([O-])c3)cc(N3CCCC[C@H]3CCO)nc12 [Dinaciclib]
2 hour infusion weekly x 3 of every 4 weeks
  maximally tolerated dose: 14 mg/m^2
All patients
  other patients who discontinued therapy due to toxicity: Five
  patients off therapy for adverse events: 10%
All patients, two due to disease progression
  deaths within 30 days of last dose: 3
Cohort 5 mg/m^2
  No Pts with Dose Reduction: 0
  Pts with DLT: 0
Cohort 7 mg/m^2
  No Pts with Dose Reduction: 0
  Pts with DLT: 1
Cohort 10 mg/m^2
  No Pts with Dose Reduction: 1
  Pts with DLT: 0
Cohort 14 mg/m^2
  No Pts with Dose Reduction: 5
  Pts with TLS: 4
Cohort 14 mg/m^2, requiring dialysis
  Pts with TLS (Dialysis): 1
Cohort 17 mg/m^2
  No Pts with Dose Reduction: 1
  Pts with TLS: 1 (1)
Cohort 17 mg/m^2, requiring dialysis
  Pts with TLS (Dialysis): 1 (1)
Cohort 7→10→14 mg/m^2
  No Pts with Dose Reduction: 1
  Pts with TLS: 1 (1)
Cohort 10→14 mg/m^2
  No Pts with Dose Reduction: 1
  Pts with TLS: 2
[1]
  Anemia, Grade 1: 8 (15) No (%)
  Anemia, Grade 2: 17 (33) No (%)
  Anemia, Grade 3: 14 (27) No (%)
  Anemia, Grade 4: 1 (2) No (%)
  Anemia, Total: 40 (77) No (%)
  Constipation, Grade 1: 4 (8) No (%)
  Constipation, Grade 2: 1 (2) No (%)
  Constipation, Grade 3: 1 (2) No (%)
  Constipation, Grade 4: 0 (0) No (%)
  Constipation, Total: 6 (12) No (%)
  Cytokine release, Grade 1: 1 (2) No (%)
  Cytokine release, Grade 2: 6 (12) No (%)
  Cytokine release, Grade 3: 1 (2) No (%)
  Cytokine release, Grade 4: 0 (0) No (%)
  Cytokine release, Total: 8 (15) No (%)
  Diarrhea, Grade 1: 14 (27) No (%)
  Diarrhea, Grade 2: 7 (13) No (%)
  Diarrhea, Grade 3: 2 (4) No (%)
  Diarrhea, Grade 4: 0 (0) No (%)
  Diarrhea, Total: 23 (44) No (%)
  Fatigue, Grade 1: 7 (13) No (%)
  Fatigue, Grade 2: 8 (15) No (%)
  Fatigue, Grade 3: 2 (4) No (%)
  Fatigue, Grade 4: 0 (0) No (%)
  Fatigue, Total: 17(33) No (%)
  Herpes infection, Grade 1: 2 (4) No (%)
  Herpes infection, Grade 2: 1 (2) No (%)
  Herpes infection, Grade 3: 0 (0) No (%)
  Herpes infection, Grade 4: 0 (0) No (%)
  Herpes infection, Total: 3 (6) No (%)
  Hyperglycemia, Grade 1: 8 (15) No (%)
  Hyperglycemia, Grade 2: 16 (31) No (%)
  Hyperglycemia, Grade 3: 11 (21) No (%)
  Hyperglycemia, Grade 4: 0 (0) No (%)
  Hyperglycemia, Total: 35 (67) No (%)
  Hyperkalemia, Grade 1: 7 (13) No (%)
  Hyperkalemia, Grade 2: 3 (6) No (%)
  Hyperkalemia, Grade 3: 3 (6) No (%)
  Hyperkalemia, Grade 4: 3 (6) No (%)
  Hyperphosphatemia, Grade 1: 6 (12) No (%)
  Hyperphosphatemia, Grade 2: 1 (2) No (%)
  Hyperphosphatemia, Grade 3: 0 (0) No (%)
  Hyperphosphatemia, Grade 4: 0 (0) No (%)
  Hyperphosphatemia, Total: 7 (13) No (%)
  Hypoalbuminemia, Grade 1: 12 (23) No (%)
  Hypoalbuminemia, Grade 2: 3 (6) No (%)
  Hypoalbuminemia, Grade 3: 0 (0) No (%)
  Hypoalbuminemia, Grade 4: 0 (0) No (%)
  Hypoalbuminemia, Total: 15 (29) No (%)
  Hypocalcemia, Grade 1: 17 (33) No (%)
  Hypocalcemia, Grade 2: 1 (2) No (%)
  Hypocalcemia, Grade 3: 9 (17) No (%)
  Hypocalcemia, Grade 4: 0 (0) No (%)
  Hypocalcemia, Total: 27 (52) No (%)
  Hypokalemia, Grade 1: 17 (33) No (%)
  Hypokalemia, Grade 2: 1 (2) No (%)
  Hypokalemia, Grade 3: 9 (17) No (%)
  Hypokalemia, Grade 4: 0 (0) No (%)
  Hypokalemia, Total: 27 (52) No (%)
  Hyponatremia, Grade 1: 18 (35) No (%)
  Hyponatremia, Grade 2: 0 (0) No (%)
  Hyponatremia, Grade 3: 1 (2) No (%)
  Hyponatremia, Grade 4: 0 (0) No (%)
  Hyponatremia, Total: 19 (37) No (%)
  Hypophosphatemia, Grade 1: 6 (12) No (%)
  Hypophosphatemia, Grade 2: 5 (10) No (%)
  Hypophosphatemia, Grade 3: 6 (12) No (%)
  Hypophosphatemia, Grade 4: 1 (2) No (%)
  Hypophosphatemia, Total: 18 (35) No (%)
  Increased ALT, Grade 1: 6 (12) No (%)
  Increased ALT, Grade 2: 9 (17) No (%)
  Increased ALT, Grade 3: 5 (10) No (%)
  Increased ALT, Grade 4: 0 (0) No (%)
  Increased ALT, Total: 20 (38) No (%)
  Increased AST, Grade 1: 11 (21) No (%)
  Increased AST, Grade 2: 8 (15) No (%)
  Increased AST, Grade 3: 13 (25) No (%)
  Increased AST, Grade 4: 2 (4) No (%)
  Increased AST, Total: 34 (65) No (%)
  Increased Alkaline Phosphatase, Grade 1: 8 (15) No (%)
  Increased Alkaline Phosphatase, Grade 2: 1 (2) No (%)
  Increased Alkaline Phosphatase, Grade 3: 0 (0) No (%)
  Increased Alkaline Phosphatase, Grade 4: 0 (0) No (%)
  Increased Alkaline Phosphatase, Total: 9 (17) No (%)
  Increased bilirubin, Grade 1: 5 (10) No (%)
  Increased bilirubin, Grade 2: 0 (0) No (%)
  Increased bilirubin, Grade 3: 0 (0) No (%)
  Increased bilirubin, Grade 4: 0 (0) No (%)
  Increased bilirubin, Total: 5 (10) No (%)
  Increased creatinine, Grade 1: 11 (21) No (%)
  Increased creatinine, Grade 2: 3 (6) No (%)
  Increased creatinine, Grade 3: 0 (0) No (%)
  Increased creatinine, Grade 4: 0 (0) No (%)
  Increased creatinine, Total: 14 (27) No (%)
  Nausea, Grade 1: 10 (19) No (%)
  Nausea, Grade 2: 3 (6) No (%)
  Nausea, Grade 3: 0 (0) No (%)
  Nausea, Grade 4: 0 (0) No (%)
  Nausea, Total: 13 (25) No (%)
  Neutropenia, Grade 1: 3 (6) No (%)
  Neutropenia, Grade 2: 2 (4) No (%)
  Neutropenia, Grade 4: 28 (54) No (%)
  Neutropenia, Total: 44 (85) No (%)
  Pharyngitis/sinusitis/respiratory infection, Grade 1: 2 (4) No (%)
  Pharyngitis/sinusitis/respiratory infection, Grade 2: 2 (4) No (%)
  Pharyngitis/sinusitis/respiratory infection, Grade 3: 0 (0) No (%)
  Pharyngitis/sinusitis/respiratory infection, Grade 4: 0 (0) No (%)
  Pharyngitis/sinusitis/respiratory infection, Total: 4 (8) No (%)
  Pneumonia, Grade 1: 0 (0) No (%)
  Pneumonia, Grade 2: 0 (0) No (%)
  Pneumonia, Grade 3: 2 (4) No (%)
  Pneumonia, Total: 2 (4) No (%)
  Sepsis, Grade 1: 0 (0) No (%)
  Sepsis, Grade 2: 0 (0) No (%)
  Sepsis, Grade 3: 1 (2) No (%)
  Sepsis, Grade 4: 0 (0) No (%)
  Sepsis, Total: 1 (2) No (%)
  Thrombocytopenia, Grade 1: 10 (19) No (%)
  Thrombocytopenia, Grade 2: 6 (12) No (%)
  Thrombocytopenia, Grade 3: 11 (21) No (%)
  Thrombocytopenia, Grade 4: 10 (19) No (%)
  Thrombocytopenia, Total: 37 (71) No (%)
  Tumor lysis syndrome, Grade 1: 0 (0) No (%)
  Tumor lysis syndrome, Grade 2: 0 (0) No (%)
  Tumor lysis syndrome, Grade 3: 7 (13) No (%)
  Tumor lysis syndrome, Grade 4: 1 (2) No (%)
  Tumor lysis syndrome, Total: 8 (15) No (%)
  Urosepsis, Grade 1: 0 (0) No (%)
  Urosepsis, Grade 2: 0 (0) No (%)
  Urosepsis, Grade 3: 0 (0) No (%)
  Urosepsis, Grade 4: 1 (2) No (%)
  Urosepsis, Total: 1 (2) No (%)

— publication PMC4551390 (Leukemia, 2015)
